Experimental data as given in patent US8158674B2, “Chalcogenoxanthylium dyes for purging blood pathogens and for photodynamic therapy” (The Research Foundation of State University of New York, priority 2004, dated 2012).
Several values for one entry are separate records, joined by “and”; a condition that tells them apart may be missing. Equal entries are not always repeated. Entries after “also recorded” stand apart in the source; their conditions may differ. Where two headings read alike, the source gives them in different places.

Columns and labels:
[1] = target: Pgp (Homo sapiens, UniProt P08183); conditions: cited from earlier work
Pgp, sequence (P08183 whole entry): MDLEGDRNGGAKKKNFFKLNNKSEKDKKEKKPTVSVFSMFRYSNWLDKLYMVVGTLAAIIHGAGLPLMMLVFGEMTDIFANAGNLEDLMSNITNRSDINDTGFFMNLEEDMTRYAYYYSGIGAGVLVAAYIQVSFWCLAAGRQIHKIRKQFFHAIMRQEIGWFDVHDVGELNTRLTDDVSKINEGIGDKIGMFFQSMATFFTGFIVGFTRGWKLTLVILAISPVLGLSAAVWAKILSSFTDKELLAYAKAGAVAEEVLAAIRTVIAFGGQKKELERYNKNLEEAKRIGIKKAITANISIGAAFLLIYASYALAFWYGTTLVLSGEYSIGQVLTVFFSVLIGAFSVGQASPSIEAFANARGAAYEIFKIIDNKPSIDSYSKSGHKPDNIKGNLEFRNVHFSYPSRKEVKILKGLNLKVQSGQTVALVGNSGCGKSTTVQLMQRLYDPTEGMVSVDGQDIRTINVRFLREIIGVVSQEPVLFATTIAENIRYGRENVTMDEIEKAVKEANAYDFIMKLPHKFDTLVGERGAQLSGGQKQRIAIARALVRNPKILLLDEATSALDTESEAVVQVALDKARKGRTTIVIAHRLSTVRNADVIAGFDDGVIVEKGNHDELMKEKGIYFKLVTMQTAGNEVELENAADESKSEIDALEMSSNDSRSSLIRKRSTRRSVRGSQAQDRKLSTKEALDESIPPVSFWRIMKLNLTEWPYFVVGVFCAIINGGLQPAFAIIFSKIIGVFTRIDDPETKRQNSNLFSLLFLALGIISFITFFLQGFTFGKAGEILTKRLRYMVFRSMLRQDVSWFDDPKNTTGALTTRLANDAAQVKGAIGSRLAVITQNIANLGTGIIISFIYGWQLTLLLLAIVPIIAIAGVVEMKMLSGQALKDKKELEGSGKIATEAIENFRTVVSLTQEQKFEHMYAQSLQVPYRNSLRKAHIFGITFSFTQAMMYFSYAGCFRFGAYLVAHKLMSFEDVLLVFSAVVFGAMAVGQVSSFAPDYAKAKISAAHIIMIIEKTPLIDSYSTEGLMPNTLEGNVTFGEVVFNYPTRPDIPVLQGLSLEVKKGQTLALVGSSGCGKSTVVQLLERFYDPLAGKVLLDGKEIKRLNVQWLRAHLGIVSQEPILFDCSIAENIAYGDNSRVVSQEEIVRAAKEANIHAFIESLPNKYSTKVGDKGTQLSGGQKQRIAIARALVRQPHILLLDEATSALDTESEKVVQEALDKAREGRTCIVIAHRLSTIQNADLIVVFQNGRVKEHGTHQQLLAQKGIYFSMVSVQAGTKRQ

[2] = n-Octanol/water partition coefficient; conditions: pH-6 phosphate buffer as the aqueous phase
[3] = Quantum yield for generation of singlet oxygen (direct luminescence detection, MeOH); format: physicochemical; conditions: rose bengal as a standard
[4] = system: AUXB1 cells; experiment: Dye uptake into cell monolayers, AUXB1; format: cell-based, Chinese hamster; conditions: dye 1×10−5 M for 1 h, 7×10−6 M verapamil
[5] = Absorption and fluorescence maxima in MeOH; conditions: for Fluorescence maximum λF: excitation at 532 nm; for Bathochromic shift in λmax: compared to TMR-O
[6] = system: Pgp-expressing CR1R12 cells; experiment: Dye uptake into cell monolayers, CR1R12; format: cell-based, Chinese hamster; conditions: for Effect of verapamil on intracellular dye uptake: dye 1×10−5 M, 7×10−6 M verapamil 2 h before dye
[7] = Fluorescence quantum yields and radiative lifetimes; format: physicochemical; conditions: for Quantum yield for fluorescence φF ± sd: rhodamine 6G as a standard
[8] = system: CR1R12 cells; experiment: Photoradiation of cell cultures (cell viability), CR1R12; conditions: for Phototoxicity (cell viability): 5.0 J cm−2 light
Protocol: (§1) Cell lines were maintained in passage culture on 60-mm diameter polystyrene dishes (Corning Costar, Corning, N.Y.) in 4.0 mL Minimum Essential Medium (α-MEM) supplemented with 10% fetal bovine serum (FBS), 50 units mL^−1 penicillin G, 50 ug ml^−1 streptomycin and 1.0 ug mL^−1 Fungizone® (complete medium). Only cells from passages 1-10 were used for experiments. A stock of cells, passages 1-4, were maintained at −86° C. to initiate the experimental cultures. Cultures were maintained at 37° C. in a 5% CO2 humidified atmosphere (Forma Scientific, Marietta, Ohio). […] Cell counts were performed using a particle counter (Model ZM, Coulter Electronics, Hialeah, Fla.).
(§2) Photoradiation of Cell Cultures: Cell lines, AUXB1 or CR1R12, were seeded on 96-well plates in 200 μL/well α-MEM at 1-4×10^4 cells/well. Rhodamine analogues were then added directly to the cell culture medium at various concentrations and incubated for 2 h in the dark as above. The medium was then removed and 200 μL α-MEM minus FBS and phenol red (clear medium) were added to each well. One plate, with the lid removed, was then exposed to 350-750 nm light delivered at 1.4 mW cm^−2 for 1 h (5.0 J cm^−2) from a filtered halogen source while a parallel plate was kept in the dark during the irradiation period. Immediately following irradiation the clear medium was replaced with complete medium and the monolayers were incubated for an additional 24-h period. Subsequently, cells were trypsinized and counted using the Coulter counter to determine cell viability. Determination of cell viability by cell counting is performed according to an earlier method. […] Briefly, cells that detach from the surface of a culture plate stain with trypan blue, i.e. are nonviable, while all cells that remain attached to the surface exclude trypan blue, 100% viable. We were unable to seed new culture plates with cells that detached from the surface after treatment, while cells that remained attached after treatment continued to grow and multiply. Thus, we count only those cells that remain attached to the culture plate surface after treatment and compare those numbers with the cell numbers obtained from control cells, cells not exposed to either dye or light. Data are then expressed as percent cell viability, treated cell counts/control cell counts.

[9] = Reduction potential by cyclic voltammetry; conditions: in CH2Cl2, 0.2N Bu4NBF4; vs. ferrocene/ferrocinium couple (E° = +0.40 V)
[10] = system: intracellular VSV; format: cell-based
[11] = target: Pgp in CR1R12 cells (Cricetulus griseus, UniProt P21448); experiment: Calcein AM uptake, CR1R12; format: cell-based, Chinese hamster; conditions: dye 1×10−5 M for 2 h in the dark
Pgp in CR1R12 cells, sequence (P21448 whole entry): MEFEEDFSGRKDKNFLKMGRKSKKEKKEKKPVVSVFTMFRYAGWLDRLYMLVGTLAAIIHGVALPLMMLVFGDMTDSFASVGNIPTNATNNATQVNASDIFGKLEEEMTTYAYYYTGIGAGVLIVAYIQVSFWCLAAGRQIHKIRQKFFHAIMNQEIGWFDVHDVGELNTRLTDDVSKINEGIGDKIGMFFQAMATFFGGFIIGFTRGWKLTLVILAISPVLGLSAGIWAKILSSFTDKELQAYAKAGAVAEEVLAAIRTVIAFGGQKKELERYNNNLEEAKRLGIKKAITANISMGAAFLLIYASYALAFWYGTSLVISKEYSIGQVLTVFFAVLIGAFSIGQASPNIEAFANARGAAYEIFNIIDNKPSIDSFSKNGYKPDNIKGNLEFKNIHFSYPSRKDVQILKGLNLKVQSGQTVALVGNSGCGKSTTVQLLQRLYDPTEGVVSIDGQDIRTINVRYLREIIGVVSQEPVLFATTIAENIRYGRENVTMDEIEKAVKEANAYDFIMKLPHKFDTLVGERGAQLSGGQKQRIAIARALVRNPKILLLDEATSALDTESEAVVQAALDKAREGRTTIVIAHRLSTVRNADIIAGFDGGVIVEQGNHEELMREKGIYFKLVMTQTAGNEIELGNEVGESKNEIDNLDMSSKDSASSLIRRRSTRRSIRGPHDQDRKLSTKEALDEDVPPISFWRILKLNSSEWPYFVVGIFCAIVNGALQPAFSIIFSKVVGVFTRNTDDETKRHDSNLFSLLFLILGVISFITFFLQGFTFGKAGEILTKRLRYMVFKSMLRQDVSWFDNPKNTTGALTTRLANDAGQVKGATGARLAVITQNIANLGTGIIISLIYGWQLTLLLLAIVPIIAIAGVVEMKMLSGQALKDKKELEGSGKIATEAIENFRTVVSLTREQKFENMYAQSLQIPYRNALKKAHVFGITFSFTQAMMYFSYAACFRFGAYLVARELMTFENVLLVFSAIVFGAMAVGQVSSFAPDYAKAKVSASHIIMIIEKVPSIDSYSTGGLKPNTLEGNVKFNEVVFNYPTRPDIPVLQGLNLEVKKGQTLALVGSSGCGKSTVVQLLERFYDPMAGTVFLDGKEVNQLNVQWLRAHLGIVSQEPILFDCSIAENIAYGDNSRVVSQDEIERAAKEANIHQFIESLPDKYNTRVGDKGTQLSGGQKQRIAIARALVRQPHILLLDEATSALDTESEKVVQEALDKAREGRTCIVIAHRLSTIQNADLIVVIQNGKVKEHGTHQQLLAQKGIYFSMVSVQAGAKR

[12] = system: CR1R12 cells
Protocol: as §1, §2

[13] = system: extracellular VSV; format: cell-based
[14] = system: AUXB1 cells; experiment: Calcein AM uptake, AUXB1; format: cell-based, Chinese hamster; conditions: higher concentrations of dye plus light exposure
[15] = pH 6
[16] = system: AUXB1 cells
Protocol: as §1
Photoradiation of Cell Cultures: Cell lines, AUXB1 or CR1R12, were seeded on 96-well plates in 200 μL/well α-MEM at 1-4×10^4 cells/well. Rhodamine analogues were then added directly to the cell culture medium at various concentrations and incubated for 2 h in the dark as above. The medium was then removed and 200 μL α-MEM minus FBS and phenol red (clear medium) were added to each well. […] Subsequently, cells were trypsinized and counted using the Coulter counter to determine cell viability. […] Data are then expressed as percent cell viability, treated cell counts/control cell counts.

[17] = over a wide range of concentrations

Compound	Inhibition of Pgp function [1]	Pgp transport substrate [1]	Quantum yield for generation of singlet oxygen φ(1O2) ± sd [3]	Intracellular dye accumulation in absence vs presence of verapamil [4]	Absorption maximum λmax [5]	log ε at λmax [5]	Fluorescence maximum λF [5]	Effect of verapamil on intracellular dye uptake [6]	Radiative lifetime τrad [7]	Quantum yield for fluorescence φF ± sd [7]	Phototoxicity (cell viability) ([8]; after 2 h 7×10−6 M verapamil)	Reduction potential E° [9]	Change in intracellular accumulation of CAM [11]	Cell viability, dye alone in the dark [12]	CAM uptake [14]	Bathochromic shift in λmax [5]	n-Octanol/water partition coefficient log P [15]	further results
COC(=O)c1ccccc1-c1c2ccc(=N)cc-2oc2cc(N)ccc12 [Rh123, rhodamine 123]	do not inhibit Pgp function	transport substrates for Pgp																
CN(C)c1ccc2c(-c3ccccc3)c3ccc(=[N+](C)C)cc-3oc2c1 [TMR-O, Tetramethylrosamine, reference compound]	do not inhibit Pgp function	transport substrates for Pgp	0.08 and 0.08 ± 0.01	similar	552 nm	4.92	575 nm	verapamil enhances the uptake; also recorded: significantly enhanced	2.1±0.1 ns	0.84 and 0.84 ± 0.01	no significant phototoxicity	−0.94 V						n-Octanol/water partition coefficient log P [2]: 1.5; Phototoxicity (cell viability) ([8]; without verapamil): no significant phototoxicity; Cell viability, dye alone in the dark ([8]; same conditions without light): no significant loss in cell viability
CN(C)c1ccc2[s+]c3ccc(N(C)C)cc3c(-c3ccccc3)c2c1.[Cl-] [TMR-S, 2,7-Bis-N,N-dimethylamino-9-phenylthioxanthylium Chloride]			0.21 and 0.21 ± 0.02	similar	571 nm	4.70	599 nm	significantly enhanced	1.5±0.1 ns	0.44 and 0.44 ± 0.01	significant cytotoxicity	−0.79 V	no significant change	no significant loss in cell viability	virtually abolished CAM uptake	20 nm	1.2	Inactivation of intracellular VSV ([10]; 50 μM and 7.4 J cm−2): 1.5 log10; Inactivation of extracellular VSV ([13]; 5 μM, 7.4 J cm−2 light, 20% hematocrit red cells): More than 8 log10; Increase in dye uptake in the presence of verapamil ([6]; dye 1×10−5 M for 1 h, 7×10−6 M verapamil): more than 3 fold
CN(C)c1ccc2[se+]c3ccc(N(C)C)cc3c(-c3ccccc3)c2c1.[Cl-] [TMR-Se, 2,7-Bis-N,N-dimethylamino-9-phenylselenoxanthylium Chloride]			0.87 and 0.87 ± 0.01		582 nm	4.84	608 nm		approximately 50 ps	0.009 and 0.009 ± 0.001	significant cytotoxicity; also recorded: significant phototoxicity	−0.77 V	no significant change	no significant loss in cell viability	virtually abolished CAM uptake	30 nm	1.1	Inactivation of intracellular VSV ([10]; under the TMR-Se conditions of b117 (1-5 μM, 2 J cm−2)): 0.5 log10; Inactivation of extracellular VSV ([13]; 1 μM, 2 J cm−2 light, 20% hematocrit red cells): > 7.4 log10; Inactivation of extracellular VSV ([13]; 5 μM, 2 J cm−2 light, 45% hematocrit red cells): > 7.4 log10; Cell viability, dye alone in the dark [16]: no significant loss in cell viability; Phototoxicity (cell viability) ([16]; AUXB1 cells, light, with or without 7×10−6 M verapamil): equally susceptible to phototoxicity
CN(C)c1ccc2sc3ccc(N(C)C)cc3c(=O)c2c1 [compound 2]																		Intracellular virucidal activity [10, 17]: < 0.5 log10; Extracellular virucidal activity [13, 17]: < 2.5 log10
